Measurements as given in patent US20140179773A1, “METHOD FOR THE TREATMENT OF HEART RELATED DISORDERS IN NAFLD PATIENTS” (INSTITUTO BIOCHIMICO ITALIANO GIOVANNI LORENZINI S.P.A., priority 2012, published 2014).

Assays:
Format in all cases: in vivo
[1] = test system: Liver mitochondrial respiratory chain (MRC) complexes I-V; test: Mitochondrial respiratory chain activity assay in liver of treated mice; conditions: activity relative to db/m + SD group = 100, MCD diet, silibinin 20 mg/kg i.p. daily 4 weeks
Description: All procedures fulfilled the Italian Guidelines for the Use and Care of Laboratory Animals. Six-week-old male BKS.Cg-m+/+ Leprdb/J (db/db) obese mice and six-week-old male heterozygous db/m lean control mice were purchased. Animals were maintained in a temperature and light-controlled facility and permitted ad libitum consumption of water; after two week of acclimation, db/db mice were fed a MCD diet for 4 weeks, whereas db/m mice were fed a MCD diet supplemented with methionine and choline, i.e. a standard diet (SD), for the same period. Silibinin was dissolved in saline (vehicle) and daily administered intraperitoneally at a dosage of 20 mg/kg of body weight. Mice were distributed in 3 groups: group I included 6 db/m mice fed a control diet and treated with vehicle (db/m+SD); group II comprised 6 db/db mice fed a MCD diet and treated with vehicle (db/db+MCD); group III included 6 db/db mice fed a MCD diet and treated with silibinin (db/db+MCD+silibinin). Treatment was administered for a 4-week period; at the end of it, animals were sacrificed after an overnight fast. Blood, liver and heart samples were obtained and stored at −80° C. for further analysis. Mitochondrial respiratory chain (MRC) activities was determined as previously described. Briefly, liver tissues (50-70 mg) were homogenized with 15 vol of 20 mmol/L KP buffer, pH 7.4, and centrifuged at 800×g for 10 min. Respiratory chain enzymes and citrate synthase activities were measured in a DU-650 spectrophotometer. Incubation temperatures were 30° C. for complexes I, II, III, V, and citrate synthase, and 38° C. for complex IV. Enzyme activities were assessed in supernatants, expressed as nanomoles of substrate used per minute per milligram of protein and referred as a percentage of the specific activity of citrate synthase, to adjust for the hepatic content of mitochondria.

[2] = test system: db/db mice fed a methionine-choline deficient (MCD) diet; test: Liver triglycerides content (colorimetric kit) in db/db mice fed MCD diet; conditions: 4 weeks MCD diet, silibinin 20 mg/kg i.p. daily
Description: All procedures fulfilled the Italian Guidelines for the Use and Care of Laboratory Animals. Six-week-old male BKS.Cg-m+/+ Leprdb/J (db/db) obese mice and six-week-old male heterozygous db/m lean control mice were purchased. Animals were maintained in a temperature and light-controlled facility and permitted ad libitum consumption of water; after two week of acclimation, db/db mice were fed a MCD diet for 4 weeks, whereas db/m mice were fed a MCD diet supplemented with methionine and choline, i.e. a standard diet (SD), for the same period. Silibinin was dissolved in saline (vehicle) and daily administered intraperitoneally at a dosage of 20 mg/kg of body weight. […]
Blood glucose was measured by Accuchek (Roche Diagnostics, Milan, Italy). Serum ALT and serum insulin were determined using a multichannel autoanalyzer. Liver triglycerides content was measured using a serum/tissue triglyceride colorimetric kit (Biovision, Mountain View, Calif.). Liver and heart isoprostanes and 8-hydroxyguanosine (8-OHG) were determined by enzyme-linked immunosorbent assay (ELISA) test; reduced glutathione (GSH) was assessed by a GSH assay. Liver and heart nitrite/nitrates were measured colorimetrically using Griess reagent, following manufacturer's instructions. […]

[3] = test system: db/db mice fed a methionine-choline deficient (MCD) diet; test: Biometric and serum biochemical parameters in db/db mice fed MCD diet
Description: This study is aimed at assessing the efficacy of silibinin both on liver and heart injury in NAFLD and at identifying the related molecular events. In order to investigate this issue, we used db/db mice fed a methionine-choline deficient (MCD) diet, a model combining the features of the metabolic syndrome with the histological pattern of NASH [23,24]. In fact, db/db mice fed an MCD diet do partially conserve increased visceral adiposity and an insulin resistant phenotype, while developing hepatocellular injury.
All procedures fulfilled the Italian Guidelines for the Use and Care of Laboratory Animals. Six-week-old male BKS.Cg-m+/+ Leprdb/J (db/db) obese mice and six-week-old male heterozygous db/m lean control mice were purchased. Animals were maintained in a temperature and light-controlled facility and permitted ad libitum consumption of water; after two week of acclimation, db/db mice were fed a MCD diet for 4 weeks, whereas db/m mice were fed a MCD diet supplemented with methionine and choline, i.e. a standard diet (SD), for the same period. Silibinin was dissolved in saline (vehicle) and daily administered intraperitoneally at a dosage of 20 mg/kg of body weight. Mice were distributed in 3 groups: group I included 6 db/m mice fed a control diet and treated with vehicle (db/m+SD); group II comprised 6 db/db mice fed a MCD diet and treated with vehicle (db/db+MCD); group III included 6 db/db mice fed a MCD diet and treated with silibinin (db/db+MCD+silibinin). Treatment was administered for a 4-week period; at the end of it, animals were sacrificed after an overnight fast. Blood, liver and heart samples were obtained and stored at −80° C. for further analysis.
Blood glucose was measured by Accuchek (Roche Diagnostics, Milan, Italy). Serum ALT and serum insulin were determined using a multichannel autoanalyzer. Liver triglycerides content was measured using a serum/tissue triglyceride colorimetric kit (Biovision, Mountain View, Calif.). Liver and heart isoprostanes and 8-hydroxyguanosine (8-OHG) were determined by enzyme-linked immunosorbent assay (ELISA) test; reduced glutathione (GSH) was assessed by a GSH assay. Liver and heart nitrite/nitrates were measured colorimetrically using Griess reagent, following manufacturer's instructions. ELISA kit for TNF-α was used on whole myocardial tissue protein extracts, following manufacturer's instructions.

[4] = db/db mice, 4 weeks MCD diet, silibinin 20 mg/kg i.p. daily
[5] = db/db mice, 4 weeks MCD diet, silibinin 20 mg/kg i.p. daily, overnight fast

Structure (SMILES): COc1cc(C2Oc3cc([C@H]4Oc5cc(O)cc(O)c5C(=O)[C@@H]4O)ccc3OC2CO)ccc1O (stereo partly shown) [silibinin, Silibinin]
- Liver MRC complex I [1]: 90.2 ± 5.2
- Liver MRC complex II [1]: 88.4 ± 4.3
- Liver MRC complex III [1]: 94.4 ± 6.8
- Liver MRC complex IV [1]: 96.1 ± 5.2
- Liver MRC complex V [1]: 94.3 ± 6.2
- Liver triglycerides [2]: 8.3 ± 2.4*, ** mg/g protein
- Effect on food intake ([3]; data not shown): did not modify
- HOMA-IR [3, 4]: 1.7 ± 0.5*, **
- Serum ALT [3, 4]: 180.5 ± 66.5*, ** IU/L
- Blood glucose [3, 5]: 103.7 ± 16.8*, ** mg/dL
- Serum insulin [3, 5]: 6.5 ± 1.1 mU/mL
- 12-Weeks weight ([3]; db/db mice, after 4 weeks MCD diet and silibinin 20 mg/kg i.p. daily): 34.8 ± 1.9 g
- Decrease of ALT levels ([3]; silibinin-treated vs vehicle db/db fed MCD diet): 3 fold
